Here are results for 35 compounds from patent publication US12071404B2, “Aza (indole)-, benzothiophene-, and benzofuran-3-sulfonamides” (UCB Pharma GmbH, priority 2016, dated 2024).

Sequence of GPR17 (Q13304 whole entry): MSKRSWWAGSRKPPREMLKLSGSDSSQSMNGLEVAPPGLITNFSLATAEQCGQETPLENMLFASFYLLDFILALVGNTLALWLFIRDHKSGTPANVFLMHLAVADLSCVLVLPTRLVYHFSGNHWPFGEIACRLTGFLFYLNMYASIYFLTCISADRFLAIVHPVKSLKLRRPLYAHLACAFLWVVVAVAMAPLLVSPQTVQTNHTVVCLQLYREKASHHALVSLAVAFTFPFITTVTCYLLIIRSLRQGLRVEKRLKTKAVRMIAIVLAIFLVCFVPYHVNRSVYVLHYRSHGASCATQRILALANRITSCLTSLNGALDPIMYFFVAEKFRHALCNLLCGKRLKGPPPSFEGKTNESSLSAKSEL

This assay addresses GPR17 (Homo sapiens, UniProt Q13304). The experiment in a line: Calcium mobilization functional assay (GPR17 Ca2+ assay). To be noted: CHO hGPR17 cells, inhibition of 50 nM MDL29,951, Calcium 5 dye, FLIPR; read-out: Ca2+ assay pIC50 (converted). More on the design: host or cells: Flp-In T-REx CHO. It counts as cell-based. On the procedure: Flp-In T-REx CHO cells stably expressing human GPR17 receptor (CHO hGPR17) from Evi Kostenis' lab (Bonn University, Germany) were cultured at 37° C. in a humidified atmosphere of 5% CO2. Cells were grown in DMEM with Nutrient Mixture F-12 supplemented with hygromycin B (500 μg/mL) and blasticidin (30 μg/mL). Expression from the Flp-In locus was induced by treatment with doxycycline (1 μg/mL) for 16-20 h prior assays.
GPR17 is a G-protein coupled receptor. GPR17 activation triggers Gq-type G-protein signaling resulting in endoplasmic reticulum calcium (Ca^2+) stores release in cytosol which can be measured using Calcium 5 dye, a fluorescent indicator dye of cytosolic Ca^2+ levels. All Examples were tested in GPR17 Ca^2+ assay to determine (screen) their GPR17 modulating activity.
CHO hGPR17 were defrosted and seeded at a density of 20,000 cells per well into black 384-well plates with clear bottom. Cells were incubated overnight at 37° C. in a humidified atmosphere of 5% CO2. Sixteen to twenty hours after seeding, CHO hGPR17 were loaded for 60 min with Calcium 5 dye, a cytosolic Ca^2+ indicator fluorescent dye, according to manufacturer's instructions. Fluorescent signal relative to cytosolic Ca^2+ concentration was recorded over time at room temperature in FLIPR Tetra reader. […] Then, 50 nM MDL29,951, a GPR17 agonist, was added to the cells. Inhibitory effects of varying concentrations test compounds were measured and resulting plC50s were determined. […] Analysis and curve fitting were performed in ActivityBase XE using XLfit 4-parameter logistic equation y=A+((B−A)/(1+((C/x)^D))) where A, B, C and D stand for minimum y, maximum y, IC50 and slope, respectively.
The activities of the Example compounds tested are depicted in the table in Section B2B below. The activity ranges A, B and C refer to plC50 values in the Ca^2+ assay as follows: “A”: plC50<7.5, “B”: plC50 7.5<x≤ 8.5, “C”: plC50>8.5
Consider `N#Cc1cc(F)c(NS(=O)(=O)c2c[nH]c3c4c(ccc23)CCC4)cc1F` [Compound I-148, N-(4-cyano-2,5-difluorophenyl)-1,6,7,8-tetrahydrocyclopenta[g]indole-3-sulfonamide], for which the IC50 is less than 3.16 nM.

On to `N#Cc1ccc(NS(=O)(=O)c2c[nH]c3c4c(ccc23)CCC4)cc1F` [Compound I-149, N-(4-cyano-3-fluorophenyl)-1,6,7,8-tetrahydrocyclopenta[g]indole-3-sulfonamide], for which the IC50 is 3.16 to 31.6 nM.

Take `O=S(=O)(Nc1cccc2nsnc12)c1c[nH]c2cc(OCc3ccccc3)ccc12` [Compound I-156, N-(2,1,3-benzothiadiazol-4-yl)-6-(benzyloxy)-1H-indole-3-sulfonamide]: the IC50 is more than 31.6 nM.

On to `O=S(=O)(Nc1ccc2nsnc2c1)c1c[nH]c2c1ccc1ccccc12` [Compound I-157, N-(2,1,3-benzothiadiazol-5-yl)-1H-benzo[g]indole-3-sulfonamide], for which the IC50 was 3.16 to 31.6 nM.

Turning to `O=S(=O)(Nc1ccc2nsnc2c1)c1c[nH]c2c3c(ccc12)CCC3` [Compound I-158, N-(2,1,3-benzothiadiazol-5-yl)-1,6,7,8-tetrahydrocyclopenta[g]indole-3-sulfonamide], the IC50 is more than 31.6 nM.

`O=S(=O)(Nc1ccc2n[se]nc2c1)c1c[nH]c2cc(Cl)ccc12` [Compound I-161, N-(2,1,3-benzoselenadiazol-5-yl)-6-chloro-1H-indole-3-sulfonamide]: the IC50 is 3.16 to 31.6 nM.

`N#Cc1ccc(NS(=O)(=O)c2c[nH]c3cc(Cl)ccc23)c2nsnc12` [Compound I-163, 6-chloro-N-(7-cyano-2,1,3-benzothiadiazol-4-yl)-1H-indole-3-sulfonamide]: the IC50 is more than 31.6 nM.

Take `N#Cc1cc(F)c(NS(=O)(=O)c2c[nH]c3cc(F)cc(F)c23)cc1F` [Compound I-164, N-(4-cyano-2,5-difluorophenyl)-4,6-difluoro-1H-indole-3-sulfonamide]: the IC50 is more than 31.6 nM.

In the case of `N#Cc1cc(F)c(NS(=O)(=O)c2c[nH]c3cc(F)ccc23)cc1F` [Compound I-165, N-(4-cyano-2,5-difluorophenyl)-6-fluoro-1H-indole-3-sulfonamide], the IC50 was less than 3.16 nM.

Consider `O=S(=O)(Nc1cccc2nsnc12)c1c[nH]c2cc(F)cc(F)c12` [Compound I-166, N-(2,1,3-benzothiadiazol-4-yl)-4,6-difluoro-1H-indole-3-sulfonamide], for which the IC50 was more than 31.6 nM.

With `N#Cc1cc(F)c(NS(=O)(=O)c2c[nH]c3c(Br)cccc23)cc1F` [Compound I-167, 7-bromo-N-(4-cyano-2,5-difluorophenyl)-1H-indole-3-sulfonamide], the IC50 is 3.16 to 31.6 nM.

For the compound `N#Cc1ccc(NS(=O)(=O)c2c[nH]c3cc(F)cc(F)c23)c(F)c1` [Compound I-168, N-(4-cyano-2-fluorophenyl)-4,6-difluoro-1H-indole-3-sulfonamide], the IC50 was 3.16 to 31.6 nM.

As to `O=S(=O)(Nc1ccc2nsnc2c1)c1c[nH]c2cc(F)ccc12` [Compound I-169, N-(2,1,3-benzothiadiazol-5-yl)-6-fluoro-1H-indole-3-sulfonamide], the IC50 was more than 31.6 nM.

On to `N#Cc1ccc(NS(=O)(=O)c2c[nH]c3cc(F)ccc23)cc1` [Compound I-171, N-(4-cyanophenyl)-6-fluoro-1H-indole-3-sulfonamide], for which the IC50 is more than 31.6 nM.

For `O=S(=O)(Nc1cc2nsnc2cc1F)c1c[nH]c2cc(F)ccc12` [Compound I-172, 6-fluoro-N-(6-fluoro-2,1,3-benzothiadiazol-5-yl)-1H-indole-3-sulfonamide], the IC50 was 3.16 to 31.6 nM.

`N#Cc1cc(F)c(NS(=O)(=O)c2c[nH]c3nc(Cl)ccc23)cc1F` [Compound I-176, 6-chloro-N-(4-cyano-2,5-difluorophenyl)-1H-pyrrolo[2,3-b]pyridine-3-sulfonamide]: the IC50 is 3.16 to 31.6 nM.

Consider `N#CCc1ccc(NS(=O)(=O)c2c[nH]c3cc(Cl)ccc23)cc1` [Compound I-180, 6-chloro-N-[4-(cyanomethyl)phenyl]-1H-indole-3-sulfonamide], for which the IC50 is more than 31.6 nM.

Regarding `Cc1ccc2c(S(=O)(=O)Nc3cc(F)c(C#N)cc3F)c[nH]c2c1` [Compound I-187, N-(4-cyano-2,5-difluorophenyl)-6-methyl-1H-indole-3-sulfonamide], the IC50 was 3.16 to 31.6 nM.

As for `N#Cc1ccc(NS(=O)(=O)c2c[nH]c3cc(C(F)(F)F)ccc23)cc1` [Compound I-190, N-(4-cyanophenyl)-6-(trifluoromethyl)-1H-indole-3-sulfonamide], the IC50 is less than 3.16 nM.

With `O=S(=O)(Nc1ccc2nsnc2c1)c1c[nH]c2cc(C(F)(F)F)ccc12` [Compound I-192, N-(2,1,3-benzothiadiazol-5-yl)-6-(trifluoromethyl)-1H-indole-3-sulfonamide], the IC50 was less than 3.16 nM.

Consider `COc1c(Cl)ccc2c(S(=O)(=O)Nc3cc(F)c(F)cc3F)c[nH]c12` [Compound I-196, 6-chloro-7-methoxy-N-(2,4,5-trifluorophenyl)-1H-indole-3-sulfonamide], for which the IC50 was more than 31.6 nM.

Consider `O=S(=O)(Nc1ccc(F)c2nonc12)c1c[nH]c2cc(Cl)ccc12` [Compound I-197, 6-chloro-N-(7-fluoro-2,1,3-benzoxadiazol-4-yl)-1H-indole-3-sulfonamide], for which the IC50 is more than 31.6 nM.

`O=S(=O)(Nc1cccc(F)c1F)c1c[nH]c2cc(Cl)ccc12` [Compound I-205, 6-chloro-N-(2,3-difluorophenyl)-1H-indole-3-sulfonamide]: the IC50 is more than 31.6 nM.

Turning to `CC(C#N)c1ccc(NS(=O)(=O)c2c[nH]c3cc(Cl)ccc23)c(F)c1` (centres unmarked) [Compound I-207, 6-chloro-N-[4-(1-cyanoethyl)-2-fluorophenyl]-1H-indole-3-sulfonamide], the IC50 is more than 31.6 nM.

On to `Cc1cc(NS(=O)(=O)c2c[nH]c3cc(Cl)ccc23)ccc1C#N` [Compound I-209, 6-chloro-N-(4-cyano-3-methylphenyl)-1H-indole-3-sulfonamide], for which the IC50 is more than 31.6 nM.

In the case of `O=S(=O)(Nc1ccc(C(F)(F)F)cn1)c1c[nH]c2cc(Cl)ccc12` [Compound I-211, 6-chloro-N-[5-(trifluoromethyl)pyridin-2-yl]-1H-indole-3-sulfonamide], the IC50 is more than 31.6 nM.

On to `Cc1cc(NS(=O)(=O)c2c[nH]c3cc(Cl)ccc23)c(F)cc1Cl` [Compound I-214, 6-chloro-N-(4-chloro-2-fluoro-5-methylphenyl)-1H-indole-3-sulfonamide], for which the IC50 is more than 31.6 nM.

Regarding `O=S(=O)(Nc1ccc(S(F)(F)(F)(F)F)cc1)c1c[nH]c2cc(Cl)ccc12` [Compound I-217, 6-chloro-N-[4-(pentafluoro-lambda6-sulfanyl)phenyl]-1H-indole-3-sulfonamide], the IC50 was more than 31.6 nM.

Turning to `O=S(=O)(Nc1ccc(Br)cc1)c1c[nH]c2cc(Cl)ccc12` [Compound I-218, N-(4-bromophenyl)-6-chloro-1H-indole-3-sulfonamide], the IC50 is more than 31.6 nM.

For the compound `N#Cc1ccc(NS(=O)(=O)c2c[nH]c3cc(OCC4CCCO4)ccc23)c(F)c1` (centres unmarked) [Compound I-222, N-(4-cyano-2-fluorophenyl)-6-(tetrahydrofuran-2-ylmethoxy)-1H-indole-3-sulfonamide], the IC50 was more than 31.6 nM.

For `N#Cc1ccc(NS(=O)(=O)c2c[nH]c3cc(-c4ccncc4)ccc23)c(F)c1` [Compound I-231, N-(4-cyano-2-fluorophenyl)-6-(pyridin-4-yl)-1H-indole-3-sulfonamide], the IC50 was more than 31.6 nM.

Consider `COc1ccc(-c2ccc3c(S(=O)(=O)Nc4ccc(C#N)cc4F)c[nH]c3c2)cc1` [Compound I-232, N-(4-cyano-2-fluorophenyl)-6-(4-methoxyphenyl)-1H-indole-3-sulfonamide], for which the IC50 is more than 31.6 nM.

Regarding `Cc1noc(C)c1-c1ccc2c(S(=O)(=O)Nc3ccc(C#N)cc3F)c[nH]c2c1` [Compound I-234, N-(4-cyano-2-fluorophenyl)-6-(3,5-dimethyl-1,2-oxazol-4-yl)-1H-indole-3-sulfonamide], the IC50 is more than 31.6 nM.

On to `COc1nc(NS(=O)(=O)c2c[nH]c3cc(Br)ccc23)c(F)cc1CC#N` [Compound I-320, 6-bromo-N-[5-(cyanomethyl)-3-fluoro-6-methoxypyridin-2-yl]-1H-indole-3-sulfonamide], for which the IC50 is less than 3.16 nM.

On to `COc1nc(NS(=O)(=O)c2c[nH]c3c(Br)c(Cl)ccc23)c(F)cc1CC#N` [Compound I-322, 7-bromo-6-chloro-N-[5-(cyanomethyl)-3-fluoro-6-methoxypyridin-2-yl]-1H-indole-3-sulfonamide], for which the IC50 was less than 3.16 nM.
